Tests used:
A498 renal cancer cells = test: A498 renal cancer xenograft tumor growth in athymic nude mice; assay type: in vivo; details: single agent; Compound 1 10 mg/kg/day oral in 0.5% CMC; paclitaxel or doxorubicin 20 mg/kg/week i.p.; nude mice with A498 tumors
Protocol: Athymic nude mice (BALB/c nu/nu female, 6-8 week old) were housed at 22° C. on a 12 h light/dark cycle. The mice were subcutaneously injected with A498 renal cancer cells (10^7 cell/mouse). After inoculation for 15 days, tumors were grown to a size of 100 to 150 mm^3. The mice were then randomly divided into six grounds (5 mice in each group). […] (paclitaxel and doxorubicin are commercial products). […] The tumors were carefully removed and weighed.

WEHI-3 cells [1] = test: NBT reduction (differentiation) in WEHI-3 cells; assay type: cell-based, murine; details: 24 h; for percentages of NBT positive cells: FIG. 3B
platelet = details: cited from earlier work
[2] = test system: human hepatocellular carcinoma HA22T cells; details: cited from earlier work
caspase-3 = test: Caspase-3 activity assay in WEHI-3 cells; details: 12, 18 and 24 h treatment; 50 μM of compound 1; FIG. 4B
Protocol: (§1) The results were expressed as mean±S.D. and the difference between the groups was tested by one way ANOVA.

WEHI-3 leukemia cells = test: Survival, organ and body weight, spleen histopathology of BALB/c mice bearing WEHI-3 leukemia cells; assay type: in vivo; details: for mean survival time of WEHI-3/BALB/c mice: 30 mg/kg/mouse i.p., untreated 30 days, text of b65; for Survival days Range / Survival days Mean ± S.D.: 30 mg/kg/mouse, QD*7 (once two days by seven times), 10 mice; for Survival days Range: untreated 20-30; for Survival days Mean ± S.D.: untreated 26.0 ± 3.9; for infiltration of immature myeloblastic cells into splenic red pulp: H-E stain of spleen section, FIG. 2; for body weight loss in leukemia mice: within one month of experiment, data not shown
Protocol: Murine myelomonocytic leukemia cell line WEHI-3 was obtained from the Food Industry Research and Development Institute (Hsinchu, Taiwan). […] This cell line can induce leukemia in syngenic BALB/c mice for evaluating anti-leukemia effects of drugs.
Specifically, BLAB/c mice were divided into 4 groups. Group I was injected i.p. with WEHI-3 only. […] Control mice and all groups of mice were treated for 2 weeks before the animals were weighed and the blood was draw and sacrificed for further experiments.
The spleen and liver tissues were isolated from individual animals, photographed, weighed, and histopathologically examined.

Hep3B cells = details: cited from earlier work
WEHI-3 cells [3] = test: TUNEL/DAPI staining (apoptosis) in WEHI-3 cells; assay type: cell-based, murine; details: for TUNEL positive cells: 24 h, FIG. 3B; for nuclear shrinkage, chromatin condensation and DNA fragmentation (TUNEL/DAPI): 24 h culture, FIG. 3A
WEHI-3 cells [4] = test: Cell cycle analysis of WEHI-3 cells in vitro; assay type: cell-based, murine; details: compound 1 5 μM, ATRA 1 μM, 24 h; data not shown
WEHI-3 cells [5] = test: DNA fragmentation by agarose gel electrophoresis in WEHI-3 cells; details: compound 1 at 5 μM, 12 and 24 h; FIG. 4A
Protocol: as §1

Structure (SMILES)	tumor size compared with control group (A498 renal cancer cells)	percentages of NBT positive cells (WEHI-3 cells [1]) [%]	antiplatelet activity (platelet)	cell cycle arrest [2]	caspase-3 activity (caspase-3)	mean survival time of WEHI-3/BALB/c mice (WEHI-3 leukemia cells) [days]	Survival days Range (WEHI-3 leukemia cells) [days]	Survival days Mean ± S.D. (WEHI-3 leukemia cells) [days]	infiltration of immature myeloblastic cells into splenic red pulp (WEHI-3 leukemia cells)	body weight loss in leukemia mice (WEHI-3 leukemia cells)	hypoxia induction of erythropoietin and vascular endothelial growth factor (Hep3B cells)	TUNEL positive cells (WEHI-3 cells [3]) [%]	nuclear shrinkage, chromatin condensation and DNA fragmentation (TUNEL/DAPI) (WEHI-3 cells [3])	sub-G1 population (WEHI-3 cells [4])	DNA fragmentation (agarose gel) (WEHI-3 cells [5])	NBT-reduction compared with control cells (WEHI-3 cells [1])
CC(=O)O[C@H]1C(=O)[C@@]2(C)[C@H]([C@H](OC(=O)c3ccccc3)[C@]3(O)C[C@H](OC(=O)[C@H](O)[C@@H](NC(=O)c4ccccc4)c4ccccc4)C(C)=C1C3(C)C)[C@]1(OC(C)=O)CO[C@@H]1C[C@@H]2O [paclitaxel, Paclitaxel]	smaller tumors than those in the control group	–	–	–	–	–	–	–	–	–	–	–	–	–	–	–
OCc1ccc(-c2nn(Cc3ccccc3)c3ccccc23)o1 [Compound 1, 1-benzyl-3-(5′-hydroxymethyl-2′-furyl)indazole]	smaller tumors than those in the control group	3.56	novel antiplatelet agent	arresting cell cycles at the Go/G1 stage	rapid induction of caspase-3 activity	40	22 to 40	32.3 ± 4.9	reduced	improved the body weight loss	inhibits hypoxia induction of erythropoietin and vascular endothelial growth factor	40.33	exhibited nuclear shrinkage, chromatin condensation and DNA fragmentation	increased sub-GI population	fragmented into a ladder of 180-200 base pairs	–
COc1cccc2c1C(=O)c1c(O)c3c(c(O)c1C2=O)C[C@@](O)(C(=O)CO)C[C@@H]3O[C@H]1C[C@H](N)[C@H](O)[C@H](C)O1 [doxorubicin, Doxorubicin]	smaller tumors than those in the control group	–	–	–	–	–	–	–	–	–	–	–	–	–	–	–
CC1=C(/C=C/C(C)=C/C=C/C(C)=C/C(=O)O)C(C)(C)CCC1 [ATRA, all trans retinoic acid, reference compound]	–	33.42	–	–	–	42	26 to 42	33.9 ± 5.0	reduced	improved the body weight loss	–	5.45	not observed	–	–	significant increases

From patent publication US20070149554A1, “Cancer chemotherapy” (Yung Shin Pharmaceutical Ind. Co., Ltd., priority 2005, published 2007)
